The text below walks through data of US20140303152A1, “BENZOTHIAZINETHIONE DERIVATIVES AND PREPARATION METHODS AND USES THEREOF” (SICHUAN UNIVERSITY, priority 2011, published 2014).

≈ marks a conversion by molar mass, not a printed value. Where “and” joins values, the source holds several entries; their conditions need not be identical. Equal values may be shown once. Read-outs that look alike come from different tables or passages of the source. Where only a bound is given, the exact number is not on record here.

As a reminder, the IC50 is the concentration that gives 50% inhibition. Broadly, the MIC99 is the lowest concentration that inhibits either 99% of growth or 99% of the strains tested, depending on the study. Usually MIC90 stands for an inhibitory concentration at the 90% level, which refers to growth in some studies and to a panel of isolates in others. In general, IC90 refers to the concentration needed for an effect of 90%.

The subject of data set [1] is 293 cells. As to the kind of experiment: Cytotoxicity test (MTT method). Format: cell-based. The settings on record: Homo sapiens. (Tetrazolium dyes change colour on reduction, which living cells bring about.)
Data set [2] deals with mycobacterium tuberculosis H37Rv. As to the kind of experiment: In vitro inhibition test on Mycobacterium tuberculosis (H37Rv). Format: cell-based. As to conditions: for MIC99 / MIC90: Mycobacterium tuberculosis; for MIC99: 264 h; for inhibitory effects on mycobacterium tuberculosis (H37Rv): result in words.
Data set [3] deals with Mycobacterium tuberculosis (H37Ra). The experiment in a line: In vitro inhibition test on Mycobacterium tuberculosis (H37Ra). Type of data set: cell-based.
Data set [4] can be described thus: Acute toxicity test of compound If, blood biochemical detection. On the set-up: Blood urea nitrogen / Total cholesterol / Creatine kinase / Creatinine / Blood glucose / Triglyceride / Total bilirubin / Alanine aminotransferase / Aspartate aminotransferase: unit not given here. Type of data set: in vivo. The procedure:
• 1. Experimental method, 1) If, intraperitoneal suspension, at dose of 2.5 g/kg; 2) adjuvant: 1% sodium carboxymethylcellulose (CMC-Na), 1% tween-80; 3) 10 BABL/C male and female mice, 6-8 weeks old, and weight of 20±2 g. The 10 mice were randomly divided into 2 groups, 5 mice for each group, and a solvent control group is set. Single intraperitoneal injection of 2.5 g/kg was given to the (1) drug group and (2) solvent control group within 24 h; physical signs, behavioral activities, glandular secretion, breath, stool, genitals, death and other poisoning manifestations of the mice were constantly observed every 4 h after administration, and the mice were killed after observation for 24 h, 5) blood was taken from eyeballs, and then the mice were killed, 800 μl whole blood was taken, centrifuged at 1300 r/min for 15 min, and 200 μl supernatant serum was taken for blood biochemical detection, including the following evaluation indicators: aspartate aminotransferase (AST), alanine aminotransferase (ALT), creatine kinase (CK), alkaline phosphatase (ALP), blood urea nitrogen (BUN), total protein (TP), albumin (Alb), blood glucose (GLU), total bilirubin (T-BIL), creatinine (Crea), total cholesterol (Chol) and triglyceride (TG), with 12 items in total. • 2.

In data set [5] the test system is Bacillus Calmette Guerin (BCG). Type of data set: in vivo, BABL/C mice. As to conditions: for Colony count results after treatment for 28 days (spleens and lungs): BCG-infected mice, FIG. 1; for Lung pathological examination, anti-BCG infection treatment effects: HE staining, FIG. 2.
[6] abbreviates: HEK293, 293 cells, MTT, 48 h, read-out: IC50.
[7] abbreviates: H37Rv, generally observed 11 days after inoculation, read-out: MIC99.
The mark [8] stands for this setting: H37Rv, generally observed 5-7 days after inoculation, read-out: MIC90.
Setting [9] is: serum of individual mice 6-10, If 2.5 g/kg i.p., 24 h.
The mark [10] stands for this setting: high dose group, 75 mg/kg i.p. once every day.
Where [11] appears, read: low dose group, 25 mg/kg i.p. once every day.

In the case of `O=[N+]([O-])c1cc(C(F)(F)F)cc2c(=S)nc(N3CCC4(CC3)OCCO4)sc12` [Compound If, 8-nitro-2-(1,4-dio-8-aza[4.5]dec-8-yl)-6-(trifluoromethyl)-4H-benzo[e][1,3]thiazine-4-thione], in data set [1] (setting [6]), the IC50 is greater than 500 µM. Moreover, the MIC99 in data set [2] (setting [7]) stood at 0.0312 µg/mL (≈ 0.0721 µM). For the same molecule, the MIC90 in data set [2] (setting [8]) turned out to be 0.0312 µg/mL (≈ 0.0721 µM). The “inhibitory effects on mycobacterium tuberculosis (H37Rv)” value (“inhibitory effects” below) in data set [2] is reported as “equivalent to or even better than those of isoniazide”. The IC90 in data set [3] amounted to 0.1 µM. In addition, the acute toxicity result in data set [4] (2.5 g/kg single intraperitoneal injection, mice, observation 24 h) is given as “no obvious acute toxicity”. Besides, in data set [4] (setting [9]), the Alanine aminotransferase is 10 and 16 (2×) and 12 and 11; the Albumin was 31.5 and 34.0 and 33.1 and 33.4 and 32.2; the Alkaline phosphatase is 166 and 134 and 156 and 175 and 165; the Aspartate aminotransferase is 145 and 148 and 149 and 156 and 169. In addition, in data set [4] (setting [9]), the Blood glucose is 6.3 and 4.3 and 4.9 and 4.5 and 5.1; the Blood urea nitrogen was 6.7 and 5.5 and 6.3 and 8.9 and 7.9; the Creatine kinase is 67 and 54 and 65 and 66 and 74; the Creatinine is −12 (2×) and −6 and −15 and −4. In addition, in data set [4] (setting [9]), the Total bilirubin is −0.6 (2×) and −0.5 and −1.2 and −0.4; the Total cholesterol was 3.35 and 3.21 and 3.34 and 3.53 and 3.14; the Total protein was 70.1 and 65.6 and 66.7 and 73.8 and 65.7; the Triglyceride is 2.10 and 1.80 and 2.53 and 2.17 and 2.24. Besides, in data set [5] (setting [10]), the “Colony count results after treatment for 28 days (spleens and lungs)” value is listed as “slightly inferior to those of isoniazide, but obviously superior to those of the model group”; the “Lung pathological examination, anti-BCG infection treatment effects” value was “equivalent to those of the isoniazide (positive) control group”. Besides, in data set [5] (setting [11]), the “Colony count results after treatment for 28 days (spleens and lungs)” value was “inhibitory effects on BCG growth of mouse spleens and lungs”; the “Lung pathological examination, anti-BCG infection treatment effects” value was “obviously superior to those of the solvent group, but inferior to the isoniazide (positive) control group and the If high dose group”.

In data set [1] (HEK293, 48 h), `O=[N+]([O-])c1cc([N+](=O)[O-])c2sc(Nc3ccc(C(F)(F)F)cc3)nc(=S)c2c1` [Ib, 6,8-dinitro-2-(4-(trifluoromethyl)anilino)-4H-benzo[e][1,3]thiazine-4-thione] came in with an IC50 greater than 500 µM. In data set [2] (H37RV), this molecule came in with an MIC90 of 4 µg/mL (≈ 9.34 µM) and an MIC99 of 16 µg/mL (≈ 37.4 µM).

Turning to `CNc1nc(=S)c2cc([N+](=O)[O-])cc([N+](=O)[O-])c2s1` [Id, 2-(methylamino)-6,8-dinitro-4H-benzo[e][1,3]thiazine-4-thione], the IC50 in data set [1] (HEK293, 48 h) is greater than 500 µM. Besides, in data set [2] (H37RV), the MIC90 turned out to be 2 µg/mL (≈ 6.7 µM) and the MIC99 came out at 4 µg/mL (≈ 13.4 µM).

Regarding `O=[N+]([O-])c1cc([N+](=O)[O-])c2sc(N3CCOCC3)nc(=S)c2c1` [Ig, 2-morpholinyl-6,8-dinitro-4H-benzo[e][1,3]thiazine-4-thione], the IC50 in data set [1] (HEK293, 48 h) is greater than 500 µM. In addition, in data set [2] (H37RV), the MIC90 worked out at 0.0625 µg/mL (≈ 0.176 µM) and the MIC99 came to 0.125 µg/mL (≈ 0.353 µM). Further, in data set [2], the “inhibitory effects” value is given as “equivalent to or even better than those of isoniazide”. In data set [3], this molecule yielded an IC90 of 0.8 µM.

Consider `O=[N+]([O-])c1cc(C(F)(F)F)cc2c(=S)nc(N3CCOCC3)sc12` [Ih, 2-morpholinyl-8-nitro-6-(trifluoromethyl)-4H-benzo[e][1,3]thiazine-4-thione], for which the IC50 in data set [1] (setting [6]) was greater than 500 µM. Also, in data set [2] (setting [7]), the MIC99 came out at 0.0312 µg/mL (≈ 0.0828 µM). Further, in data set [2] (setting [8]), the MIC90 turned out to be 0.0312 µg/mL (≈ 0.0828 µM). The “inhibitory effects” value in data set [2] is given as “equivalent to or even better than those of isoniazide”. This molecule registered an IC90 in data set [3] of 0.8 µM.

Consider `O=[N+]([O-])c1cc([N+](=O)[O-])c2sc(N3CCCCC3)nc(=S)c2c1` [Ie, 6,8-dinitro-2-(piperidine-1-alkyl)-4H-benzo[e][1,3]thiazine-4-thione], for which the IC50 in data set [1] (HEK293, 48 h) is greater than 500 µM. In data set [2] (H37RV), the MIC90 stood at 1 µg/mL (≈ 2.84 µM) and the MIC99 was 4 µg/mL (≈ 11.4 µM).

For the molecule `Fc1cc2c(=S)nc(Nc3ccc(Br)cn3)sc2c(F)c1F` [Ia, 2-(5-bromopyridine-2-amino)-6,7,8-trifluoro-4H-benzo[e][1,3]thiazine-4-thione], the IC50 in data set [1] (setting [6]) is greater than 500 µM. The MIC99 in data set [2] (setting [7]) was determined as 16 µg/mL (≈ 39.6 µM). In data set [2] (setting [8]), the MIC90 is 8 µg/mL (≈ 19.8 µM).

`CCNc1nc(=S)c2cc([N+](=O)[O-])cc([N+](=O)[O-])c2s1` [Ic, 2-(ethylamino)-6,8-dinitro-4H-benzo[e][1,3]thiazine-4-thione] registered an IC50 in data set [1] (HEK293, 48 h) greater than 500 µM. In data set [2] (H37RV), this molecule had an MIC90 of 2 µg/mL (≈ 6.4 µM) and an MIC99 of 8 µg/mL (≈ 25.6 µM).

Turning to `NNC(=O)c1ccncc1` [Isoniazide, reference compound], in data set [2] (setting [7]), the MIC99 is 0.0625 µg/mL (≈ 0.456 µM). Moreover, the MIC90 in data set [2] (setting [8]) was 0.0625 µg/mL (≈ 0.456 µM). In addition, in data set [3], the IC90 is 0.8 µM.
